Measured values from patent US9855230B2 (ViiV Healthcare UK (No. 5) Limited, priority 2014, dated 2018).
Counter-ions that a name gives are not always drawn. Like-named read-outs stand apart in the source and are kept apart here.

Key:
[1] = test system: recombinant NL4-3 virus (nef section replaced with Renilla luciferase gene) in MT-2 cells; assay: whole plant or invertebrate; type: cell-based, HIV; conditions: NL43, luciferase activity in MT-2 cells infected 4-5 days with recombinant NL4-3 virus
Procedure, shortened: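 Nef-deleted NL4-3 reporter virus carrying Renilla luciferase was used to infect MT-2 cells in the presence of serial compound dilutions. After 4-5 days of infection, antiviral activity was quantified from luciferase activity using a live-cell substrate.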

[2] = Compound cytotoxicity (CC50), XTT-based colorimetric assay; type: cell-based; conditions: human; uninfected MT2 cells, day 4, XTT assay
Procedure, shortened: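 Run under the antiviral-assay protocol but without virus. Viability was read on day 4 and CC50 values were derived from the readout.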

| SMILES | EC50 ([1]; read-out: Activity) [nM] | CC50 at 4 day [2] [µM] | EC50 ([1]; read-out: EC50) [nM] |
| --- | --- | --- | --- |
| COC(=O)Nc1ccc(-c2cccnc2C(Cc2ccccc2)NC(=O)NS(=O)(=O)c2ccccc2Cl)cc1 (stereo not drawn) [Example 118, methyl (4-(2-(1-(3-((2-chlorophenyl)sulfonyl)ureido)-2-phenylethyl)pyridin-3-yl)phenyl)carbamate, TFA] | > 1000 | > 100 | – |
| Cc1ccccc1S(=O)(=O)NC(=O)N[C@@H](Cc1cc(F)cc(F)c1)c1ncccc1-c1ccc2cn(C)nc2c1 [Example 119, (S)-N-((2-(3,5-difluorophenyl)-1-(3-(2-methyl-2H-indazol-6-yl)pyridin-2-yl)ethyl)carbamoyl)-2-methylbenzenesulfonamide, TFA] | 100 to 1000 | 58 | – |
| Cc1ccccc1S(=O)(=O)NC(=O)N[C@@H](Cc1cc(F)cc(F)c1)c1ncccc1-c1ccc(CN(C)C)cc1 [Example 120, (S)-N-((2-(3,5-difluorophenyl)-1-(3-(4-((dimethylamino)methyl)phenyl)pyridin-2-yl)ethyl)carbamoyl)-2-methylbenzenesulfonamide, TFA] | 100 to 1000 | > 100 | 360 |
| Cc1ccccc1S(=O)(=O)NC(=O)N[C@@H](Cc1cc(F)cc(F)c1)c1ncccc1-c1cccc(CO)c1 [Example 121, (S)-N-((2-(3,5-difluorophenyl)-1-(3-(3-(hydroxymethyl)phenyl)pyridin-2-yl)ethyl)carbamoyl)-2-methylbenzenesulfonamide, TFA] | 100 to 1000 | > 100 | – |
| Cc1ccccc1S(=O)(=O)NC(=O)N[C@@H](Cc1cc(F)cc(F)c1)c1ncccc1-c1ccc(CN2CCOCC2)s1 [Example 122, (S)-N-((2-(3,5-difluorophenyl)-1-(3-(5-(morpholinomethyl)thiophen-2-yl)pyridin-2-yl)ethyl)carbamoyl)-2-methylbenzenesulfonamide, 2 TFA] | 100 to 1000 | > 100 | – |
| CCOc1ccc(-c2cccnc2[C@H](Cc2cc(F)cc(F)c2)NC(=O)NS(=O)(=O)c2ccccc2C)cc1F [Example 123, (S)-N-((2-(3,5-difluorophenyl)-1-(3-(4-ethoxy-3-fluorophenyl)pyridin-2-yl)ethyl)carbamoyl)-2-methylbenzenesulfonamide, TFA] | 100 to 1000 | 55 | 600 |
| COc1ncccc1-c1cccnc1[C@H](Cc1cc(F)cc(F)c1)NC(=O)NS(=O)(=O)c1ccccc1C [Example 124, (S)-N-((2-(3,5-difluorophenyl)-1-(2′-methoxy-[3,3′-bipyridin]-2-yl)ethyl)carbamoyl)-2-methylbenzenesulfonamide, TFA] | > 1000 | > 100 | – |
| Cc1ccccc1S(=O)(=O)NC(=O)N[C@@H](Cc1cc(F)cc(F)c1)c1ncccc1-c1ccc(-c2cccs2)cc1 [Example 125, (S)-N-((2-(3,5-difluorophenyl)-1-(3-(4-(thiophen-2-yl)phenyl)pyridin-2-yl)ethyl)carbamoyl)-2-methylbenzenesulfonamide, TFA] | > 1000 | 38 | – |
| Cc1ccccc1S(=O)(=O)NC(=O)N[C@@H](Cc1cc(F)cc(F)c1)c1ncccc1-c1ccnc(F)c1C [Example 126, (S)-N-((2-(3,5-difluorophenyl)-1-(2′-fluoro-3′-methyl-[3,4′-bipyridin]-2-yl)ethyl)carbamoyl)-2-methylbenzenesulfonamide, TFA] | > 1000 | > 33 | 1520 |
| Cc1ccccc1S(=O)(=O)NC(=O)N[C@@H](Cc1cc(F)cc(F)c1)c1ncccc1-c1coc2ccccc12 [Example 127, (S)-N-((1-(3-(benzofuran-3-yl)pyridin-2-yl)-2-(3,5-difluorophenyl)ethyl)carbamoyl)-2-methylbenzenesulfonamide, TFA] | > 1000 | 72 | – |
| Cc1ccccc1S(=O)(=O)NC(=O)N[C@@H](Cc1cc(F)cc(F)c1)c1ncccc1-c1ccc(C#N)cc1 [Example 128, (S)-N-((1-(3-(4-cyanophenyl)pyridin-2-yl)-2-(3,5-difluorophenyl)ethyl)carbamoyl)-2-methylbenzenesulfonamide, TFA] | > 1000 | 80 | – |
| Cc1ccccc1S(=O)(=O)NC(=O)N[C@@H](Cc1cc(F)cc(F)c1)c1ncccc1-c1cccc(C(=O)OC(C)(C)C)c1 [Example 130, (S)-tert-butyl 3-(2-(2-(3,5-difluorophenyl)-1-(3-(o-tolylsulfonyl)ureido)ethyl)pyridin-3-yl)benzoate, TFA] | > 1000 | 53 | – |
| Cc1ccccc1S(=O)(=O)NC(=O)N[C@@H](Cc1cc(F)cc(F)c1)c1ncccc1-c1ccc(F)c(C(=O)O)c1 [Example 131, (S)-5-(2-(2-(3,5-difluorophenyl)-1-(3-(o-tolylsulfonyl)ureido)ethyl)pyridin-3-yl)-2-fluorobenzoic Acid, TFA] | > 1000 | > 100 | – |
| Cc1ccccc1S(=O)(=O)NC(=O)N[C@@H](Cc1cc(F)cc(F)c1)c1ncccc1-c1ccc(F)c2ccccc12 [Example 132, (S)-N-((2-(3,5-difluorophenyl)-1-(3-(4-fluoronaphthalen-1-yl)pyridin-2-yl)ethyl)carbamoyl)-2-methylbenzenesulfonamide, TFA] | > 1000 | 73 | 4810 |
| Cc1cc(-c2cccnc2[C@H](Cc2cc(F)cc(F)c2)NC(=O)NS(=O)(=O)c2ccccc2C)c(C)s1 [Example 133, (S)-N-((2-(3,5-difluorophenyl)-1-(3-(2,5-dimethylthiophen-3-yl)pyridin-2-yl)ethyl)carbamoyl)-2-methylbenzenesulfonamide, TFA] | > 1000 | 71 | – |
| COc1c(F)cc(F)cc1-c1cccnc1[C@H](Cc1cc(F)cc(F)c1)NC(=O)NS(=O)(=O)c1ccccc1C [Example 134] | > 1000 | > 50 | – |
